{"source": "patent US20250000841A1", "about": "“Administration of Resiniferatoxin For Treatment of Prostate Cancer” (Sorrento Therapeutics, Inc., priority 2021, published 2025)", "key": {"[1]": {"test_system": "human prostate cancer cell line DU145", "assay": "proliferation assay, prostate cancer cell line DU145", "assay_type": "cell-based", "conditions": "DU145 cells cultured with varying amounts of RTX, FIG. 2C", "excerpt": "(§1) Proliferation measurements were normalized to an untreated control."}, "[2]": {"test_system": "human DU145 prostate carcinoma xenograft tumor tissue", "assay": "H&E staining and immunofluorescence of dissected xenograft tumor tissues", "assay_type": "in vivo, mouse", "conditions": "immunofluorescence of tumor tissue, FIG. 3C", "protocol": "(§2) FIGS. 3A, 3B and 3C show RTX inhibits prostate carcinoma progression in a cytostatic manner. […] RTX was administered locally (peritumorally) every other day at the indicated dose starting at 28 days after engraftment. The cytostatic activity appeared to be dose-independent in the tested range of 0.1-1 μg/dose. […] Scale, 100 μm. CD31+ blood vessel length and cleaved caspase 3 levels (expressed as median fluorescence intensity, MFI) are quantified in FIG. 3C.\nDissected tumor tissues were assessed by H&E staining and by immunofluorescence for CD31 (tumor vessel marker), DRAQ7 (nuclear marker), and cleaved caspase 3 (apoptotic cell maker). […] (FIG. 3B, upper row). […] (FIG. 3B, middle row)."}, "[3]": {"test_system": "human prostate cancer cell line LNCaP", "assay": "proliferation assay, prostate cancer cell line LNCaP", "assay_type": "cell-based", "conditions": "LNCaP cells cultured with varying amounts of RTX, FIG. 2C", "excerpt": "as §1"}, "[4]": {"test_system": "tumor associated inflammatory cytokines (IL-6, IFNγ)", "assay": "cytokine array of xenograft tumor tissue homogenates", "assay_type": "in vivo, mouse", "excerpt": "Reduced IL-6 expression in a dose-dependent manner is shown magnified (FIG. 4A).\nSome studies of RTX have reported a potential to induce neurologic inflammatory responses. […] Tumor tissue homogenate samples from mouse xenograft tumor models described in Example B were taken at necroptic endpoint and analyzed for tumor associated inflammatory cytokine levels using a cytokine array (FIG. 4A)."}, "[5]": {"test_system": "human DU145 prostate carcinoma cells engrafted s.c.", "assay": "mouse xenograft tumor model, tumor volume over time", "assay_type": "in vivo", "conditions": "0.1, 0.5 and 1 μg/dose, local (peritumoral) every other day from day 28 after engraftment, FIG. 3A", "protocol": "as §2"}}, "data": [{"smiles": "C=C(C)[C@]12C[C@@H](C)[C@@]34O[C@](Cc5ccccc5)(O[C@@H]1[C@@H]3C=C(COC(=O)Cc1ccc(O)c(OC)c1)C[C@]1(O)C(=O)C(C)=C[C@@H]41)O2", "note": "[RTX, Resiniferatoxin]", "values": [{"measurement": "proliferation (normalized to untreated control)", "setting": "[1]", "result": "dose-dependent decreases in proliferation"}, {"measurement": "tumor cell apoptosis (cleaved caspase 3 staining)", "setting": "[2]; FIG. 3B lower row", "result": "tumor cell apoptosis increased"}, {"measurement": "CD31+ tumor vasculature", "setting": "[2]; FIG. 3B middle row", "result": "decreased contiguous CD31+ stained structures"}, {"measurement": "proliferation (normalized to untreated control)", "setting": "[3]", "result": "dose-dependent decreases in proliferation"}, {"measurement": "Cytokine Release Syndrome (inflammatory cytokine expression)", "setting": "[4]; tumor homogenates taken at necroptic endpoint, FIG. 4A", "result": "no indication of Cytokine Release Syndrome (CRS)"}, {"measurement": "IFNγ expression", "setting": "[4]; tumor homogenates, cytokine array", "result": "did not induce elevated expression of IFNγ"}, {"measurement": "IL-6 expression", "setting": "[4]; tumor homogenates, higher RTX doses, FIG. 4A-C", "result": "reduced expression"}, {"measurement": "cytostatic efficacy (tumor volume)", "setting": "[5]", "result": "potent cytostatic efficacy in a dose-independent manner"}]}]}
